From publication PMC8482274, “Inadequate Cerebrospinal Fluid Concentrations of Available Salvage Agents Further Impedes the Optimal Treatment of Multidrug-Resistant Enterococcus faecium Meningitis and Bacteremia” (Infectious Disease Reports, 2021)
Read-outs that look alike come from different tables or passages of the source. Numbered stars: 1 amine (or outer) side, 2 acyl side, 3 side chain; on linkers, the order of the positions; unused ones are H or OH. Bridge positions count the residues as written; N and C are the ends. Square brackets hold non-standard residues; d marks the D form. Peptide text beside a SMILES is read from it. * marks the point of attachment. X1 = O=C1C[C@@H](C(=O)[*:2])N([*:1])C[C@H]1CS[C@@H]1CN2CCC1CC2; NMePhe(4-NMe2) = CN[C@@H](Cc1ccc(N(C)C)cc1)C(=O)O; Picolinoyl(3-OH) = O=C(c1ncccc1O)*; Phg = N[C@H](C(=O)O)c1ccccc1; dAbu = CC[C@@H](N)C(=O)O

Legend:
[1] = cited from earlier work
[2] = design: method as in PMID 11408247; settings: animal study; cited from earlier work
[3] = system: VREf isolate cultured from the CSF on hospital day 33; assay: Time-kill experiments; type: cell-based, Enterococcus faecium; settings: at mean measured CSF concentration; triplicate
Protocol: Next, the 5 drugs were tested in combination at their respective extrapolated maximal CSF concentration as described.

VREf isolates = assay: microbe, parasite or virus in culture; settings: for MIC: modal MIC of triplicate, CLSI guidelines
Protocol: Initial organism identification and susceptibility determination were performed via MALDI-TOF MS (Bruker Daltonics, Billerica, MA, USA) and MicroScan Walkaway (Beckman Coulter, Brea, CA), respectively, in the clinical microbiology laboratory. Pure colonies of the VREf isolates cultured from the CSF on hospital days 33 and 57 and from blood on days 35 and 52 were sub-cultured to BD BBL chocolate II agar slants (Becton, Dickinson and Company, Sparks, MD, USA) and shipped immediately overnight to the research laboratory where all subsequent testing was performed. Identification and resistance marker detection was confirmed via the Verigene Gram-positive blood culture assay (Luminex, Northbrook, IL, USA).
Minimum inhibitory concentrations were determined in triplicate according to CLSI guidelines. Modal MIC values are reported.

[4] = cited from earlier work; remark: listed apart in the source
Source text: Almost exactly 2 days had elapsed between the time of the patient’s last oritavancin dose and the time of CSF collection.

[5] = CSF drug concentrations from day 57 lumbar puncture by LC-MS/MS; settings: one patient, systemic dosing at steady state, LLOQ 0.001 mg/L, mean of two CSF tubes, time after last dose: gentamicin 77:30, oritavancin 46:54, tigecycline 8:27, tedizolid 8:25, quinupristin/dalfopristin 2:00 h:m
Protocol: (§1) CSF samples were immediately frozen at −80 °C and shipped overnight on dry ice. […] Results are presented as the mean (±SD) of the two measured CSF concentrations. Additionally, estimated corresponding unbound plasma concentrations at the time of CSF collection were extrapolated for each agent from published pharmacokinetic data in order to establish an estimate of the degree of CSF/plasma penetration. This % CSF/plasma penetration was then utilized to predict the maximum post-dose CSF concentration on the basis of the peak free plasma concentration (fCmax) and the time of fCmax (Tmax) of each agent. Finally, these predictions were evaluated against published data, all of which were restricted to animal studies except for tigecycline.

[6] = Estimated unbound plasma concentration, CSF/plasma penetration and projected maximum CSF concentration extrapolated from published pharmacokinetic data; settings: for CSF/plasma ratio: this patient
Protocol: as §1

[7] = design: method as in PMID 31295511; settings: average in uninfected rats; cited from earlier work
[8] = design: method as in PMID 16982782, PMID 17043116, PMID 21585240, PMID 25216547; settings: cited from earlier work
[9] = cited from earlier work; remark: listed apart in the source
[10] = Enterococcus faecium, VREf isolate from CSF, hospital day 57
[11] = Enterococcus faecium, VREf isolate from blood, hospital day 52
[12] = VREf isolate from CSF, hospital day 57, CLSI M100-S30 unless footnoted
[13] = VREf isolate from blood, hospital day 52, CLSI M100-S30 unless footnoted
[14] = Enterococcus faecium, VREf isolate from CSF, hospital day 33
[15] = Enterococcus faecium, VREf isolate from blood, hospital day 35

In the case of `CCN(CC)CCS(=O)(=O)[C@@H]1CCN2C(=O)c3coc(n3)CC(=O)C[C@H](O)/C=C(C)/C=C/CNC(=O)/C=C/[C@@H](C)[C@@H](C(C)C)OC(=O)[C@@H]12` [Dalfopristin], the “Published % CSF/Plasma Penetration” value ([1]; rabbit pneumococcal meningitis data) is given as 0 [23, 27] %.
In the case of `CN[C@H](CC(C)C)C(=O)N[C@H]1C(=O)N[C@@H](CC(N)=O)C(=O)N[C@H]2C(=O)N[C@H]3C(=O)N[C@H](C(=O)N[C@H](C(=O)O)c4cc(O)cc(O)c4-c4cc3ccc4O)[C@H](O[C@H]3C[C@](C)(N)[C@@H](O)[C@H](C)O3)c3ccc(c(Cl)c3)Oc3cc2cc(c3O[C@@H]2O[C@H](CO)[C@@H](O)[C@H](O)[C@H]2O[C@H]2C[C@](C)(NCc3ccc(-c4ccc(Cl)cc4)cc3)[C@@H](O)[C@H](C)O2)Oc2ccc(cc2Cl)[C@H]1O` [Oritavancin], the “Published % CSF/Plasma Penetration” value [2] is listed as 1–5 [26] %, the “bacterial growth (increase) at 24 h compared to the starting inoculum” value [3] is listed as 0.69 log10 CFU/mL and the MIC (VREf isolates; VREf isolate from CSF, hospital day 33) is listed as 0.25 µg/mL. It also gave an MIC (VREf isolates; VREf isolate from CSF, hospital day 57) of 0.25 µg/mL, an MIC (VREf isolates; VREf isolate from blood, hospital day 35) of 0.25 µg/mL and an MIC (VREf isolates; VREf isolate from blood, hospital day 52) of 0.25 µg/mL. The fCmax ([4]; plasma, after a 1200 mg dose, published pharmacokinetic data, ref not given) was 20.7 mg/L, the half-life ([4]; plasma, published pharmacokinetic data, ref not given) was 245 h and the “Mean (±SD) Measured CSF Concentration” value [5] was 0.013 ± 0.005 mg/L. For the same molecule, the “projected maximal CSF concentration at plasma Tmax” value (“projected maximal CSF concentration” below) ([6]; point estimate) was 0.014 mg/L and the CSF/plasma ratio ([6]; point estimate) was 0.07%.
In the case of `CN(C)[C@@H]1C(O)=C(C(N)=O)C(=O)[C@@]2(O)C(O)=C3C(=O)c4c(O)c(NC(=O)CN5CCCC5)cc(F)c4C[C@H]3C[C@@H]12` [Eravacycline], the MIC (VREf isolates; [10]) is reported as 0.12 µg/mL, the MIC (VREf isolates; [11]) is reported as 0.12 µg/mL and the “Interpretive Category” value (VREf isolates; [12]) is reported as “S”. The “Interpretive Category” value (VREf isolates; [13]) was “S” and the CNS penetration ([1]; rabbits) was “virtually zero”.
In the case of `CC[C@H]1NC(=O)[C@@H](NC(=O)c2ncccc2O)[C@@H](C)OC(=O)[C@H](c2ccccc2)NC(=O)[C@@H]2CC(=O)[C@H](CS[C@@H]3CN4CCC3CC4)CN2C(=O)[C@H](Cc2ccc(N(C)C)cc2)N(C)C(=O)[C@@H]2CCCN2C1=O` [Quinupristin] ({Picolinoyl(3-OH)}-T[dAbu]P[NMePhe(4-NMe2)][X1][Phg]; ester 1-C), the “Published % CSF/Plasma Penetration” value ([1]; rabbit, in vivo) is listed as 0 [23, 27] %.
`Cn1nnc(-c2ccc(-c3ccc(N4C[C@H](CO)OC4=O)cc3F)cn2)n1` [Tedizolid] gave an MIC (VREf isolates; [14]) of 2 µg/mL, an MIC (VREf isolates; [10]) of 2 µg/mL and an MIC (VREf isolates; [15]) of 2 µg/mL. The MIC (VREf isolates; [11]) was 2 µg/mL, the “Published % CSF/Plasma Penetration” value [7] was 2.2 [16] % and the half-life ([4]; in vivo, iv) was 12 h. The “steady-state plasma fCmax” value ([4]; in vivo, iv) was 0.6 mg/L, the “projected maximal CSF concentration” value ([6]; in vivo) was “roughly 0.3 mg/L” and the CSF/plasma ratio ([6]; point estimate) was “approximately 50%”. For the same molecule, the protein binding [8] was 80%.
In the case of `CN(C)c1cc(NC(=O)CNC(C)(C)C)c(O)c2c1C[C@H]1C[C@H]3[C@H](N(C)C)C(O)=C(C(N)=O)C(=O)[C@@]3(O)C(O)=C1C2=O` [Tigecycline], the penetration ratios ([9]; a patient with cerebritis due to Acinetobacter) is listed as 7–36%, the “Published % CSF/Plasma Penetration” value ([9]; human, in vivo) is listed as 5–41 [21, 22] % and the MIC (VREf isolates; [14]) is listed as 0.25 µg/mL. For the same molecule, the MIC (VREf isolates; [10]) was 0.25 µg/mL, the MIC (VREf isolates; [15]) was 0.25 µg/mL and the MIC (VREf isolates; [11]) was 0.25 µg/mL. For the same molecule, the “Interpretive Category” value (VREf isolates; VREf isolate from CSF, hospital day 33, CLSI M100-S30 unless footnoted (b: CLSI vancomycin-susceptible E. faecalis; c: FDA E. faecalis; d: EUCAST v.10.0 E. faecium)) was “S”, the “Interpretive Category” value (VREf isolates; [12]) was “S” and the “Interpretive Category” value (VREf isolates; VREf isolate from blood, hospital day 35, CLSI M100-S30 unless footnoted) was “S”. The “Interpretive Category” value (VREf isolates; [13]) was “S”, the half-life ([4]; in vivo) was “≈ 30 h” and the “projected maximal CSF concentration” value ([6]; in vivo) was “approximately 0.197 mg/L”. For the same molecule, the CSF/plasma ratio ([6]; point estimate) was 65.5%.
